Assay results published in the supplement of paper PMC5908809.

Key:
IMC-1 (IL-2 20 ng/mL) [1] = experiment: percent inhibition of viability; higher = more inhibition; settings: 72 h
SNK-6 (IL-2 2.5 ng/mL) [2] = experiment: as above; settings: 72 h
YT (IL-2 2.5 ng/mL) [3] = experiment: as above; settings: 72 h
KHYG-1 (IL-2 2.5 ng/mL) [4] = experiment: as above; settings: 72 h
NK-YS (IL-2 2.5 ng/mL) [5] = experiment: as above; settings: 72 h
[6] = system: normal primary NK cells, pool 2 (3 donors) (IL-2 2.5 ng/mL); experiment: as above; settings: 72 h
KAI3 (IL-2 2.5 ng/mL) [7] = experiment: as above; settings: 72 h
[8] = system: normal primary NK cells, pool 1 (3 donors), resting (IL-2 0 ng/mL); experiment: as above; settings: 72 h
NK-92 (IL-2 2.5 ng/mL) [9] = experiment: as above; settings: 72 h
NKL (IL-2 2.5 ng/mL) [10] = experiment: as above; settings: 72 h
[11] = system: normal primary NK cells, pool 1 (3 donors) (IL-2 2.5 ng/mL); experiment: as above; settings: 72 h
DERL-7 (IL-2 2.5 ng/mL) [12] = experiment: as above; settings: 72 h
[13] = system: normal primary NK cells, pool 3 (3 donors) (IL-2 2.5 ng/mL); experiment: as above; settings: 72 h
[14] = system: normal NK cells expanded with K562-aAPC; experiment: drug sensitivity score (DSS) (DSS units); higher = more sensitive; extreme values may be limits of the assay; settings: 72 h; IL-2 2.5 ng/mL
Procedure: (§1)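 Drug sensitivity and resistance testing on K562-aAPC-expanded normal NK cells: 5 concentrations (10-fold steps over a 10,000-fold range), 72 h at 37 °C, viability by CellTiter-Glo normalised to DMSO and benzethonium chloride controls; DSS from the fitted curve.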

[15] = system: normal NK cells expanded with K562-aAPC; experiment: percent inhibition of viability; higher = more inhibition; settings: 72 h, IL-2 2.5 ng/mL
Procedure: as §1

IMC-1 (IL-2 20 ng/mL) [16] = experiment: drug sensitivity score (DSS) (DSS units); higher = more sensitive; extreme values may be limits of the assay; settings: 72 h
SNK-6 (IL-2 2.5 ng/mL) [17] = experiment: as above; settings: 72 h
YT (IL-2 2.5 ng/mL) [18] = experiment: as above; settings: 72 h
KHYG-1 (IL-2 2.5 ng/mL) [19] = experiment: as above; settings: 72 h
NK-YS (IL-2 2.5 ng/mL) [20] = experiment: as above; settings: 72 h
[21] = system: normal primary NK cells, pool 2 (3 donors) (IL-2 2.5 ng/mL); experiment: as above; settings: 72 h
KAI3 (IL-2 2.5 ng/mL) [22] = experiment: as above; settings: 72 h
[23] = system: normal primary NK cells, pool 1 (3 donors), resting (IL-2 0 ng/mL); experiment: as above; settings: 72 h
NK-92 (IL-2 2.5 ng/mL) [24] = experiment: as above; settings: 72 h
NKL (IL-2 2.5 ng/mL) [25] = experiment: as above; settings: 72 h
[26] = system: normal primary NK cells, pool 1 (3 donors) (IL-2 2.5 ng/mL); experiment: as above; settings: 72 h
DERL-7 (IL-2 2.5 ng/mL) [27] = experiment: as above; settings: 72 h
[28] = system: normal primary NK cells, pool 3 (3 donors) (IL-2 2.5 ng/mL); experiment: as above; settings: 72 h

Nc1nc(F)nc2c1ncn2[C@@H]1O[C@H](CO)[C@@H](O)[C@@H]1O [Fludarabine] (max concentration tested 10000 nM)
percent inhibition of viability [%]
Settings | 1 nM | 10 nM | 100 nM | 1000 nM | 10000 nM
DERL-7 (IL-2 2.5 ng/mL) [12] | -6.18 | -6.69 | 2.47 | -9.31 | 74.8
IMC-1 (IL-2 20 ng/mL) [1] | -8.37 | 2.44 | -0.32 | 0.25 | 53.5
KAI3 (IL-2 2.5 ng/mL) [7] | -10.9 | -7.43 | -11.6 | 10.9 | 97.9
KHYG-1 (IL-2 2.5 ng/mL) [4] | -3.8 | -1.74 | -3.07 | 5.53 | 82.9
NK-92 (IL-2 2.5 ng/mL) [9] | -5.82 | -19.1 | -10.8 | 24.7 | 101
NK-YS (IL-2 2.5 ng/mL) [5] | -7.11 | -1.12 | -0.69 | 4.05 | 12.8
NKL (IL-2 2.5 ng/mL) [10] | -18.8 | -16.5 | -2.27 | 56.9 | 100
SNK-6 (IL-2 2.5 ng/mL) [2] | 18.4 | 33.8 | 24.8 | 32.5 | 28
YT (IL-2 2.5 ng/mL) [3] | -2.12 | 0.54 | 0.43 | -2.19 | 4.14
[6] | -15.8 | -12 | 5.13 | 47.7 | 93
[8] | -2.66 | -18.7 | 10.1 | 65.3 | 89.5
[11] | 6.23 | -6.78 | 8.3 | 45.7 | 93.6
[13] | -13.2 | -7.62 | 3.81 | 29.6 | 90.2
[15] | -4.55 | -1.76 | -0.86 | 67.3 | 100

Settings | drug sensitivity score
DERL-7 (IL-2 2.5 ng/mL) [27] | 3.52
IMC-1 (IL-2 20 ng/mL) [16] | 2.89
KAI3 (IL-2 2.5 ng/mL) [22] | 7.22
KHYG-1 (IL-2 2.5 ng/mL) [19] | 5.42
NK-92 (IL-2 2.5 ng/mL) [24] | 9.32
NK-YS (IL-2 2.5 ng/mL) [20] | 0.32
NKL (IL-2 2.5 ng/mL) [25] | 12.3
SNK-6 (IL-2 2.5 ng/mL) [17] | 7.06
YT (IL-2 2.5 ng/mL) [18] | 0
[14] | 13.3
[21] | 10.8
[23] | 13.5
[26] | 10.6
[28] | 9.07
